Laboratory results: patent US20100210602A1, “PhoU (PerF), A P[…] INVOLVED IN [sequence] FORMATION AND TOLERANCE TO MULTIPLE ANTIBIOTICS AND [sequence] AS A DRUG TARGET FOR [sequence] BACTERIA” (priority 2006, published 2010)
Values after ≈ are worked out from the molar mass of the structure shown. Read-outs that look alike come from different tables or passages of the source.

How the values were obtained:
[1] = test system: wild type strain W3110; assay: microbe, parasite or virus in culture; format: cell-based, E. coli; conditions: Escherichia coli, W3110, LB broth, 16 h at 37° C.
[2] = test system: PhoU mutant (JHU-313); assay: MIC/MBC by serial two-fold dilutions in LB broth; format: cell-based, E. coli; conditions: Escherichia coli, 16 h at 37° C.
[3] = test system: JHU-313 containing pPhoU; assay: MIC/MBC by serial two-fold dilutions in LB broth; format: cell-based, E. coli; conditions: Escherichia coli, 16 h at 37° C.
[4] = test system: JHU-313 containing pVector; assay: MIC/MBC by serial two-fold dilutions in LB broth; format: cell-based, E. coli; conditions: Escherichia coli, 16 h at 37° C.
[5] = test system: wild type strain W3110; format: cell-based, E. coli
[6] = test system: PhoU mutant (JHU-313); assay: Sequential antibiotic exposure of ampicillin persisters (CFU); format: cell-based, E. coli
[7] = test system: wild type strain W3110; format: cell-based
[8] = test system: PhoU transposon mutant (JHU-313); format: cell-based
[9] = test system: PhoU deletion mutant (ΔphoU); format: cell-based
[10] = test system: W3110; assay: microbe, parasite or virus in culture; conditions: Escherichia coli, read-out: zone inhibition
Description: (§1) The sensitivity of the bacterial strains to antibiotics or peroxide was determined by Kirby-Bauer's paper disc assay as measured by zone inhibition in millimeters.
(§2) The sensitivity of bacterial strains to antibiotics or stresses was also assessed by the Kirby-Bauer method (2) using paper discs. E. coli bacteria were grown to log phase (10^8 bacteria) in LB broth. An inoculum from this culture was spread across the surfaces of LB plates to provide confluent growth. Nitrocellulose discs (7 mm in diameter) soaked with appropriate antibiotics or stress agents (100 mM H2O2, were placed on the agar surface). After incubation at 37° C. for 48 h, the diameter of the zone of growth inhibition was measured and scored according to the size of the zone of inhibition, which is directly proportional to the sensitivity of the organism to the antibiotic.

[11] = test system: JHU-313; assay: Kirby-Bauer paper disc assay, zone inhibition; conditions: Escherichia coli, read-out: zone inhibition
Description: as §1, §2

[12] = test system: JHU-313 containing pPhoU; assay: Kirby-Bauer paper disc assay, zone inhibition; conditions: Escherichia coli, read-out: zone inhibition
Description: as §1, §2

[13] = test system: JHU-313 containing pVector; assay: Kirby-Bauer paper disc assay, zone inhibition; conditions: Escherichia coli, read-out: zone inhibition
Description: as §1, §2

[14] = biological target: T1, PhoU (Escherichia coli, UniProt P0A9K7); assay: PhoU phosphatase substrate specificity; format: biochemical, E. coli; conditions: pH5, pH7 and pH8
T1 construct: His; made in house
T1 sequence (P0A9K7 whole entry): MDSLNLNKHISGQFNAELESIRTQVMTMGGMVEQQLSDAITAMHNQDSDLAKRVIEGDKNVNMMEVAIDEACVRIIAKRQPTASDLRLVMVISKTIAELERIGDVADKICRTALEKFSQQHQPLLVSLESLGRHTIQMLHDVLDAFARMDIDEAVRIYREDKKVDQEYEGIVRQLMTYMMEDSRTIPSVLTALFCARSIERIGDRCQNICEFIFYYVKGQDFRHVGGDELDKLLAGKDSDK
Description: Different substrates for the PhoU phosphatase activity were tested. […] For PhoU, the substrates acetyl-P, carbamoyl-P, imido-di phosphate (imido-di-P), r-nitrophenyl phosphate (rNPP), β-Nicotinamide adenine dinucleotide phosphate (NADP), Glucose-1,6-bisphosphate (Glucose-1,6-bisP) were tested at pH5, pH7, and pH8 condition, as potential PhoU phosphatase activity.

[15] = 20 h after 1.5 h ampicillin pre-exposure, ampicillin 100, gentamicin 20, trimethoprim 16, norfloxacin 5 μg/ml
[16] = log phase, ampicillin 100 μg/ml, 1.5 h
[17] = log phase, 100 μg/ml, 24 hr exposure
[18] = log phase, 1 week, Ap100, Norf3
[19] = log phase, 5 hr, ampicillin 100 μg/ml (Ap100), norfloxacin 3 μg/ml (Norf3)
[20] = log phase, 3 days, Ap100, Norf3
[21] = log phase, 5 days, Ap100, Norf3
[22] = log phase, 10 days, Ap100, Norf3
[23] = log phase, ampicillin 100 μg/ml, norfloxacin 3 μg/ml
[24] = stationary phase, 100 μg/ml, 72 hr
[25] = stationary phase, 1 week, Ap100, Norf3
[26] = stationary phase, 5 hr, ampicillin 100 μg/ml (Ap100), norfloxacin 3 μg/ml (Norf3)
[27] = stationary phase, 1 day, Ap100, Norf3
[28] = stationary phase, 3 days, Ap100, Norf3
[29] = stationary phase, 5 days, Ap100, Norf3
[30] = stationary phase, 10 days, Ap100, Norf3

## CC1(C)S[C@@H]2[C@H](NC(=O)[C@H](N)c3ccccc3)C(=O)N2[C@H]1C(=O)O [Ampicillin, ampicillin]
[1]; read-out: MBC
  MBC: 12.5 µg/mL (≈ 35.8 µM)
[1]; read-out: MIC
  MIC: 3.1 µg/mL (≈ 8.87 µM)
[2]; read-out: MBC
  MBC: 6.25 µg/mL (≈ 17.9 µM)
[2]; read-out: MIC
  MIC: 1.5 µg/mL (≈ 4.29 µM)
[3]; read-out: MBC
  MBC: 12.5 µg/mL (≈ 35.8 µM)
[3]; read-out: MIC
  MIC: 3.1 µg/mL (≈ 8.87 µM)
[4]; read-out: MBC
  MBC: 6.25 µg/mL (≈ 17.9 µM)
[4]; read-out: MIC
  MIC: 3.1 µg/mL (≈ 8.87 µM)
[5]; [15]
  CFU after second antibiotic exposure: 7 × 10^5 CFU/ml
[5]; log phase, 100 μg/ml, 1.5 hr
  decrease in CFU count: 3 log
[5]; [16]
  CFU after ampicillin treatment: 7 × 10^4 CFU/ml
[6]; [15]
  CFU after second antibiotic exposure: 0 CFU/ml
[6]; log phase, 100 μg/ml, 1.5 hr
  decrease in CFU count: 3 log
[6]; [16]
  CFU after ampicillin treatment: 4 × 10^4 CFU/ml
[7]; [17]
  viable bacteria left: 10-100
[7]; [18]
  CFU: 0 CFU
[7]; [19]
  CFU: 3 × 10^3 CFU
[7]; log phase, 1 day, Ap100, Norf3
  CFU: 10 CFU
[7]; [20]
  CFU: 0 CFU
[7]; [21]
  CFU: 0 CFU
[7]; [22]
  CFU: 0 CFU
[7]; [23]
  time to killing of all cells: all cells were killed by three days
[7]; [24]
  viable cells: 10^8 CFU/ml
[7]; [25]
  CFU: 5 × 10^6 CFU
[7]; [26]
  CFU: 5 × 10^9 CFU
[7]; [27]
  CFU: 3 × 10^9 CFU
[7]; [28]
  CFU: 1 × 10^8 CFU
[7]; [29]
  CFU: 3 × 10^7 CFU
[7]; [30]
  CFU: 2 × 10^5 CFU
[8]; log phase, 100 μg/ml, 3 hr
  killed more than the wild type strain: about 100 fold
[8]; [17]
  viable cells remaining: no viable cells remained
[8]; [18]
  CFU: 0 CFU
[8]; [19]
  CFU: 20 CFU
[8]; log phase, 1 day, Ap100, Norf3
  CFU: 0-1 CFU
[8]; [20]
  CFU: 0 CFU
[8]; [21]
  CFU: 0 CFU
[8]; [22]
  CFU: 0 CFU
[8]; [23]
  time to killing of all cells: all cells were killed by three days
[8]; [24]
  sterilization of culture: completely sterilized
[8]; [25]
  CFU: 0 CFU
[8]; [26]
  CFU: 2 × 10^8 CFU
[8]; [27]
  CFU: 1 × 10^7 CFU
[8]; [28]
  CFU: 0 CFU
[8]; [29]
  CFU: 0 CFU
[8]; [30]
  CFU: 0 CFU
[9]; [18]
  CFU: 0 CFU
[9]; [19]
  CFU: 6 × 10^2 CFU
[9]; log phase, 1 day, Ap100, Norf3
  CFU: 0-1 CFU
[9]; [20]
  CFU: 0 CFU
[9]; [21]
  CFU: 0 CFU
[9]; [22]
  CFU: 0 CFU
[9]; [23]
  time to killing of all cells: all cells were killed by three days
[9]; [25]
  CFU: 0 CFU
[9]; [26]
  CFU: 6 × 10^8 CFU
[9]; [28]
  CFU: 0 CFU
[9]; [29]
  CFU: 0 CFU
[9]; [30]
  CFU: 0 CFU
[10]
  zone of inhibition at 1.5 µg/mL: 21 mm
  zone of inhibition at 6 µg/mL: 25 mm
  zone of inhibition at 25 µg/mL: 28 mm
  zone of inhibition at 100 µg/mL: 35 mm
[11]
  zone of inhibition at 1.5 µg/mL: 25 mm
  zone of inhibition at 6 µg/mL: 30 mm
  zone of inhibition at 25 µg/mL: 35 mm
  zone of inhibition at 100 µg/mL: 40 mm
[12]
  zone of inhibition at 1.5 µg/mL: 25 mm
  zone of inhibition at 6 µg/mL: 32 mm
  zone of inhibition at 25 µg/mL: 36 mm
  zone of inhibition at 100 µg/mL: 40 mm
[13]
  zone of inhibition at 1.5 µg/mL: 27 mm
  zone of inhibition at 6 µg/mL: 34 mm
  zone of inhibition at 25 µg/mL: 40 mm
  zone of inhibition at 100 µg/mL: 45 mm

## O=P(O)(O)OC[C@H]1O[C@H](OP(=O)(O)O)[C@H](O)[C@@H](O)[C@@H]1O [Glucose-1,6-bisP, Glucose-1,6-bisphosphate]
[14]
  rank as PhoU phosphatase substrate: acetyl-P>rNPP>carbamoyl-P>Glucose-1,6-bisP>NADP
